Test results published in patent US5368712A, “Biologically mimetic synthetic ion channel transducers” (Synporin Technologies, Inc., priority 1990, dated 1994).
Where “and” joins values, the source holds several entries; their conditions need not be identical. Identical values can stand only once. Entries after “also recorded” stand apart in the source; their conditions may differ.

What was measured:
[1] = Single channel recordings of synthetic channel proteins in lipid bilayers; conditions: for formation of ionic channels in lipid bilayers: single channel recordings in lipid bilayers
Description: Using established recording, filtering, digitizing and data processing techniques, single channel recording were made of single channel recordings for tethered tetrameric M2δ proteins and free M2δ proteins (FIGS. 7 and 8 respectively). Conductance (V) and lifetime (T) values were determined from a multiplicity of events, and single channel open and closed lifetimes were discriminated using a published pattern recognition algorithm.
These recordings were made in symmetric 0.5M KCl (pH 7.4) and recorded at 100 mV. […] These were recorded at 0.5M NaCl (pH 7.2) and 100 mV.
Planar lipid bilayers into which the synthetic ion protein channels can be incorporated are prepared using commonly available and well understood lipids and bilayer formation techniques. For example, planar bilayers can be formed by hydrophobic apposition of two lipid monolayers initially formed at an air-water interface. The electrical properties of such protein-free bilayers can be examined using known techniques. Peptides can be incorporated into the bilayers from mixed lipid-peptide monolayers.

[2] = target: T1, tetrameric M2δ synthetic porin (Tetronarce californica, UniProt P02718); assay: Block of tetrameric M2δ synthetic porin by a local anaesthetic derivative, single channel recordings; assay type: biochemical, Torpedo californica; conditions: 25 μM QX-222
T1 construct: multi-functional carrier template (peptide backbone of at least seven amino acids with four basic attachment residues); made in house; host or cells: chemical peptide synthesis (no expression host)
Description: Furthermore, the pharmacological specificity of the pure structure generated by the tetrameric M2δ synthetic porin was examined by using a quaternary derivative (QX-222) of the local anaesthetic lidocaine. QX-222 is known to transiently block the flow of current through the AChR channel, thereby reducing the channel open lifetime. FIGS. 9A and […] show comparative single channel recordings of this synthetic porin before (FIG. 9A) and after (FIG. 9B) addition of 25 μM QX-222. The result is that the characteristic brief and long open lifetimes exist prior to application of the anaesthetic, as previously shown in FIG. 7.

## 9 amino acid backbone used as template: nine-residue carrier template K K K P G K E K G without attached oligopeptides (KKKPGKEKG)
[1]
  formation of ionic channels in lipid bilayers: showed similar activity

## Cc1cccc(C)c1NC(=O)C[N+](C)(C)C [QX-222]
[2]
  effect on channel open time: drastically shortened
  effect on single channel conductance V: virutally unaffected

## EKMSTAISVLLAQAVFLLLTSQR [free (monomeric) M2δ, untethered 23-mer synthetic peptide mimicking the acetylcholine receptor M2δ subunit]
[1]; 0.5M NaCl (pH 7.2), 100 mV
  single channel conductance V of distinct events: 20 pS and 40 pS
[1]
  formation of ionic channels in lipid bilayers: form discrete ion channels in lipid bilayers; also recorded: forms channels of heterogeneous amplitudes and open lifetimes

## XPDWNWLDFTVITFAYVTEFVDL [22-residue synthetic peptide that mimics the electrical properties of a voltage dependent sodium channel]
[1]
  selectivity cations versus anions: discriminates cations over anions
  selectivity sodium ion versus potassium ion: nonselective between sodium ion and potassium ion
  single channel open and close lifetimes: in the millisecond time range
  voltage dependence: no specific voltage dependence
[1]; 0.5M sodium chloride
  single channel conductance of the most frequent event: 20 pS
